Strand notation (5' to 3'): a small letter for the sugar, then the base; units joined by * are phosphorothioate-linked, units joined directly phosphodiester-linked; [ ] holds rarer units or linkages, { } end groups; capitals alone tell only the bases. k = constrained ethyl (cEt); [5mC] = 5-methylcytosine; d = 2'-deoxy (DNA)
tested on: human SMAD7 mRNA; assay: Antisense inhibition of human SMAD7 mRNA expression in Hep3B cells by 3-10-3 cEt gapmers, 10,000 nM, electroporation (Example 2); type: cell-based; conditions: Hep3B cells, electroporation with 10,000 nM antisense oligonucleotide, approximately 24 hours, SMAD7 mRNA by RT-PCR (RTS5062), relative to untreated control cells
How it was run: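 Hep3B cells (20,000 per well) were electroporated with 10,000 nM 16-mer 3-10-3 cEt gapmer (phosphorothioate, 5-methylcytosine). After about 24 h, SMAD7 mRNA was quantified by qRT-PCR with primer probe set RTS5062, normalised to RIBOGREEN total RNA, and expressed as percent inhibition versus untreated cells.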

Going from “830082 (kG*kG*kT*dG*dT*dA*dT*dA*d[5mC]*d[5mC]*d[5mC]*dT*dG*k[5mC]*kA*k[5mC]; antisense) [compound 830082]” to “830083 (kA*kT*kG*dG*dT*dG*dT*dA*dT*dA*d[5mC]*d[5mC]*d[5mC]*kT*kG*k[5mC]; antisense) [compound 830083]”, the “% Inhibition” value rises from 34% to 54%.

Compared with “830084 (kG*kA*kT*dA*d[5mC]*dA*d[5mC]*dT*dT*dA*dA*dT*d[5mC]*kA*kA*kA; antisense) [compound 830084]”, “830085 (k[5mC]*kA*kG*dG*dA*dT*dA*d[5mC]*dA*d[5mC]*dT*dT*dA*kA*kT*k[5mC]; antisense) [compound 830085]” is higher in “% Inhibition” value: 26% for the first, 27% for the second.

First: 830086 (kT*kT*kT*dA*d[5mC]*dA*dG*dG*dA*dT*dA*d[5mC]*dA*k[5mC]*kT*kT; antisense) [compound 830086]
Second: 830087 (kT*kT*kT*dT*dA*d[5mC]*dA*dG*dG*dA*dT*dA*d[5mC]*kA*k[5mC]*kT; antisense) [compound 830087]
The “% Inhibition” value of the first is higher: 40% for the first, 35% for the second.

Going from “830088 (kG*kT*kT*dT*dT*dA*d[5mC]*dA*dG*dG*dA*dT*dA*k[5mC]*kA*k[5mC]; antisense) [compound 830088]” to “830089 (kA*kA*kG*dA*d[5mC]*d[5mC]*d[5mC]*dT*dG*dT*dA*dA*dG*k[5mC]*kT*kT; antisense) [compound 830089]”, the “% Inhibition” value falls from 52% to 9%.

Compared with “830090 (kA*kT*kA*d[5mC]*dA*d[5mC]*dA*dA*dG*dA*d[5mC]*d[5mC]*d[5mC]*kT*kG*kT; antisense) [compound 830090]”, “830091 (kA*kA*kT*dA*d[5mC]*dA*d[5mC]*dA*dA*dG*dA*d[5mC]*d[5mC]*k[5mC]*kT*kG; antisense) [compound 830091]” is higher in “% Inhibition” value: 10% for the first, 37% for the second.

Compared with “830092 (kA*kT*kT*dA*dG*dT*d[5mC]*d[5mC]*d[5mC]*dA*dT*dG*dA*kA*kA*k[5mC]; antisense) [compound 830092]”, “830093 (k[5mC]*kT*k[5mC]*dA*dT*dT*dA*dG*dT*d[5mC]*d[5mC]*d[5mC]*dA*kT*kG*kA; antisense) [compound 830093]” is lower in “% Inhibition” value: 43% for the first, 5% for the second.

Going from “830094 (kT*k[5mC]*kT*dT*dA*d[5mC]*d[5mC]*dT*dG*dA*dA*dA*dG*k[5mC]*k[5mC]*k[5mC]; antisense) [compound 830094]” to “830096 (kA*kA*k[5mC]*dA*dA*d[5mC]*dA*dT*d[5mC]*d[5mC]*dT*dG*dA*kG*k[5mC]*kG; antisense) [compound 830096]”, the “% Inhibition” value rises from 30% to 44%.

Compared with “830098 (kA*kG*kA*d[5mC]*dA*dA*dA*d[5mC]*d[5mC]*dT*dT*d[5mC]*d[5mC]*kG*kA*kA; antisense) [compound 830098]”, “830101 (kG*k[5mC]*k[5mC]*d[5mC]*dG*d[5mC]*dT*d[5mC]*dT*d[5mC]*dA*dG*d[5mC]*k[5mC]*kA*kG; antisense) [compound 830101]” is higher in “% Inhibition” value: 37% for the first, 46% for the second.

Going from “830102 (kA*kG*k[5mC]*d[5mC]*d[5mC]*dG*d[5mC]*dT*d[5mC]*dT*d[5mC]*dA*dG*k[5mC]*k[5mC]*kA; antisense) [compound 830102]” to “830103 (kA*kA*kG*d[5mC]*d[5mC]*d[5mC]*dG*d[5mC]*dT*d[5mC]*dT*d[5mC]*dA*kG*k[5mC]*k[5mC]; antisense) [compound 830103]”, the “% Inhibition” value falls from 43% to 39%.

Compared with “830104 (kT*kA*kA*dG*d[5mC]*d[5mC]*d[5mC]*dG*d[5mC]*dT*d[5mC]*dT*d[5mC]*kA*kG*k[5mC]; antisense) [compound 830104]”, “830105 (kT*kT*kA*dA*dG*d[5mC]*d[5mC]*d[5mC]*dG*d[5mC]*dT*d[5mC]*dT*k[5mC]*kA*kG; antisense) [compound 830105]” is higher in “% Inhibition” value: 28% for the first, 48% for the second.

Compared with “830106 (k[5mC]*kA*kT*dT*dA*dA*dG*d[5mC]*d[5mC]*d[5mC]*dG*d[5mC]*dT*k[5mC]*kT*k[5mC]; antisense) [compound 830106]”, “830107 (kT*k[5mC]*kA*dT*dT*dA*dA*dG*d[5mC]*d[5mC]*d[5mC]*dG*d[5mC]*kT*k[5mC]*kT; antisense) [compound 830107]” is higher in “% Inhibition” value: 33% for the first, 50% for the second.

Going from “830108 (kT*kT*k[5mC]*dA*dT*dT*dA*dA*dG*d[5mC]*d[5mC]*d[5mC]*dG*k[5mC]*kT*k[5mC]; antisense) [compound 830108]” to “830109 (kA*kT*kT*d[5mC]*dA*dT*dT*dA*dA*dG*d[5mC]*d[5mC]*d[5mC]*kG*k[5mC]*kT; antisense) [compound 830109]”, the “% Inhibition” value falls from 54% to 44%.

First: 830110 (k[5mC]*k[5mC]*kA*dT*dT*d[5mC]*dA*dT*dT*dA*dA*dG*d[5mC]*k[5mC]*k[5mC]*kG; antisense) [compound 830110]
Second: 830111 (k[5mC]*k[5mC]*k[5mC]*dA*dT*dT*d[5mC]*dA*dT*dT*dA*dA*dG*k[5mC]*k[5mC]*k[5mC]; antisense) [compound 830111]
The “% Inhibition” value of the first is lower: 36% for the first, 38% for the second.

First: 830112 (kG*k[5mC]*k[5mC]*d[5mC]*d[5mC]*dA*dT*dT*d[5mC]*dA*dT*dT*dA*kA*kG*k[5mC]; antisense) [compound 830112]
Second: 830113 (kA*kG*k[5mC]*d[5mC]*d[5mC]*d[5mC]*dA*dT*dT*d[5mC]*dA*dT*dT*kA*kA*kG; antisense) [compound 830113]
The “% Inhibition” value of the first is lower: 23% for the first, 36% for the second.

Compared with “830114 (kG*kA*kG*d[5mC]*d[5mC]*d[5mC]*d[5mC]*dA*dT*dT*d[5mC]*dA*dT*kT*kA*kA; antisense) [compound 830114]”, “830115 (kA*k[5mC]*k[5mC]*d[5mC]*dT*dA*dA*dA*d[5mC]*dT*dG*dA*dG*k[5mC]*k[5mC]*k[5mC]; antisense) [compound 830115]” is lower in “% Inhibition” value: 22% for the first, 9% for the second.

Going from “830116 (k[5mC]*kA*k[5mC]*d[5mC]*d[5mC]*dT*dA*dA*dA*d[5mC]*dT*dG*dA*kG*k[5mC]*k[5mC]; antisense) [compound 830116]” to “830117 (k[5mC]*k[5mC]*kA*d[5mC]*d[5mC]*d[5mC]*dT*dA*dA*dA*d[5mC]*dT*dG*kA*kG*k[5mC]; antisense) [compound 830117]”, the “% Inhibition” value falls from 11% to 5%.

First: 830118 (kT*k[5mC]*k[5mC]*d[5mC]*dA*d[5mC]*d[5mC]*d[5mC]*dT*dA*dA*dA*d[5mC]*kT*kG*kA; antisense) [compound 830118]
Second: 830119 (k[5mC]*k[5mC]*kG*dA*d[5mC]*d[5mC]*dT*dT*d[5mC]*d[5mC]*dT*d[5mC]*d[5mC]*k[5mC]*kA*k[5mC]; antisense) [compound 830119]
The “% Inhibition” value of the first is lower: 0% for the first, 24% for the second.

First: 830120 (kG*k[5mC]*k[5mC]*dG*dA*d[5mC]*d[5mC]*dT*dT*d[5mC]*d[5mC]*dT*d[5mC]*k[5mC]*k[5mC]*kA; antisense) [compound 830120]
Second: 830123 (antisense kG*kG*k[5mC]*dA*d[5mC]*d[5mC]*dA*d[5mC]*dA*dT*dT*dT*dT*k[5mC]*kA*k[5mC]) [compound 830123]
The “% Inhibition” value of the first is lower: 27% for the first, 44% for the second.

Compared with “830124 (antisense k[5mC]*k[5mC]*kG*dA*dG*dG*d[5mC]*dA*d[5mC]*d[5mC]*dA*d[5mC]*dA*kT*kT*kT) [compound 830124]”, “830125 (antisense kT*k[5mC]*k[5mC]*dG*dA*dG*dG*d[5mC]*dA*d[5mC]*d[5mC]*dA*d[5mC]*kA*kT*kT) [compound 830125]” is higher in “% Inhibition” value: 27% for the first, 46% for the second.

Source: US10517889B2, “Modulators of SMAD7 expression” (Ionis Pharmaceuticals, Inc., priority 2017, dated 2019)
